The record followed here is patent US20230293488A1, “COMPOSITIONS AND METHODS OF USE OF ANTIBACTERIAL DRUG COMBINATIONS” (priority 2015, published 2023).

“Also recorded” adds a separate entry of the source.

In general, MIC refers to the smallest concentration in the dilution series that meets the test's criterion for growth inhibition.

What all share (assay type): cell-based, Staphylococcus aureus
In assay [1] the test system is MRSA COL pbp2 antisense (AS) strain. Kind of assay: Xylose-inducible antisense-RNA strain susceptibility (PBP2 repression). Particulars: targeted repression of PBP2. From the text: (§1) We confirmed the targets of the constituents of ME/PI/TZ by reducing the expression of PBP1, PBP2, PBP2a or PBP3 using a xylose-inducible antisense-RNA strategy in the MRSA COL strain background^49. When expression levels of PBP2a were attenuated, the strain behaved as a methicillin-susceptible S. aureus and was sensitized to all tested β-lactams (FIG. 6A-C).

The test system of assay [2] is MRSA N315. Briefly: Adaptation and cross-resistance assays (11-day passage). How it is done: Adaptation and Cross-resistance Assays: 414 MRSA N315 was grown in 150 μl/well of CAMHB with constant shaking at 37° C. and passaged over 11 days in identical 96-well plates containing replicate threefold dilutions of ME/PI/TZ, ME/PI, ME/TZ, PI/TZ, ME, PI, and TZ. Top concentrations of drug combinations were 33.3 μg/ml for each component, while top concentrations for single drugs was 100 μg/ml. To test for cell viability, at the end of the assay on day 11, all wells from the plate were pinned with a sterile 96-pin replicator and transferred to CAMHB only. After passage, plates were filled 1:1 with 30% CAMHB/glycerol and frozen at −80° C. for later analysis.
Growth rate of isolates over passages in each condition was determined by linear best-fit of logarithm-converted exponential growth phase. […] Adapted isolates were retrospectively chosen from each combination or single compound in wells showing an increase in MIC or growth rate, frozen isolates were streaked out on agar plates to obtain single colonies, re-grown in broth conditions identical to those in which they grew originally, and then re-inoculated in sterile 96-well plates identical to the original 11-day 431 plates.

The test system of assay [3] is MRSA N315. Briefly: MIC assay and FICI synergy determination (checkerboard). Particulars: Staphylococcus aureus, MRSA; single compounds; read-out: MIC in MRSA N315. How it is done: (§2) Microbiological Studies: MRSA N315 was a gift from Dr. Steven Gill, University of Rochester, Rochester, NY, USA. S. aureus ATCC 29213 was acquired from the American Type Culture Collection. De-identified clinical MRSA isolates were selected at random from the clinical isolate strain bank at Barnes-Jewish Hospital, St. Louis, MO, USA. Minimal inhibitory concentration (MIC) assays for inhibition of growth were performed following the recommendations of the Clinical and Laboratory Standards Institute (CLSI)^43. Briefly, 23 antibacterial compounds (Supplemental Table 1) were selected based on coverage of all major drug classes, including three compounds not classified as antibiotics for human use, but with known antibacterial properties. Compounds were dissolved in dimethyl sulfoxide (DMSO) to a stock concentration of 50 mg/ml. Exceptions: Sulfometuron at 20 mg/ml in DMSO; Tobramycin, D-cycloserine, and colistin at 50 mg/ml in H2O and filtered at 2 μm. The 23 compounds were formulated into all 253 possible unique pairwise combinations at fixed ratios and at 100× concentrations in solvent. To increase the range of concentrations assayed for possible synergistic or antagonistic drug interactions (>2,000-fold), the drug stocks were arrayed into threefold dilution series down eight rows in 96-well Costar master drug plates, using a BioMek FX robotic liquid handler (Beckman Coulter, Inc.). Drugs were then mixed 1:100 into 96-well plates containing 200 μl/well of cation-adjusted Mueller-Hinton broth (CAMHB). All drug susceptibility assay wells were inoculated with ˜1 μl of mid-log phase bacterial culture at 0.5 McFarland standard (˜2×10^8 CFU/ml) and grown at 37° C. for 24 h. Endpoint growth at 37° C. after 24 h was determined by optical density at 600 nm ≥0.1 using a Synergy H1 reader (BioTek, Inc.).
Synergy of antibiotic combinations was determined using the fractional inhibitory concentration index (FICI) method ^57,58. By this method, the MIC of the antibiotic compound in combination is divided by the MIC of the compound alone, yielding the fractional contribution of each drug component in the combination. Quotients for all in a combination are summed and drug interactions scored using the formula: FICI=(MIC Acomb A B C)/MICagent A+(MIC Bcomb A B C)/MICagent B+(MIC Ccomb A B C)/MICagentC Select pairwise combinations against MRSA were then combined with each of the 21 remaining single drugs to make triple combinations, formulated and tested in identical fashion to the double combinations. Synergy of combinations was confirmed via triplicate measurements of drug conditions at the MIC. Based on its high synergy against MRSA N315 in the sparse screening, ME/PI/TZ and its constituents were selected for further characterization. Final susceptibility testing of ME/PI/TZ and its components was performed using twofold dilution from 128 to 2 μg/ml for each component

The test system of assay [4] is MRSA COL pbpA antisense (AS) strain. Kind of assay: Xylose-inducible antisense-RNA strain susceptibility (PBP1 repression). As to conditions: targeted repression of PBP1.
Excerpt: as §1

Assay [5] has as its system MRSA N315. Briefly: In vitro MICs and FICI for MRSA N315 after passage in vivo.
Excerpt: We tested MRSA N315 cultures from blood drawn from mice treated with meropenem, piperacillin, or vehicle for their in vitro MICs against ME/PI/TZ and its constituent single drugs to determine whether adaptation occurred during passage in vivo. All four tested isolates of MRSA N315 had identical MICs for the triple ME/PI/TZ and all constituent drugs, and thus identical synergy (Table 6B).
as §2
Bacterial isolation from blood. Blood samples were checked for bacterial growth by plating and liquid culture. Whole blood (100 μl, three samples per group) was spread onto Brain-Heart Infusion (BHI) agar plates and incubated at 36° C. overnight. Colonies were counted and three colonies were selected, grown overnight in liquid BHI culture at 36° C., then mixed 1:1 with 30% LB-glycerol and stored at −80° C. The remaining three blood samples of each group (50 μl) was added to 5 ml BHI broth and incubated overnight at 36° C. When growth was noted, cultures were mixed 1:1 with 30% LB-glycerol and stored at −80° C.

The test system of assay [6] is MRSA COL pbp2a/mecA antisense (AS) strain. Briefly: Xylose-inducible antisense-RNA strain susceptibility (PBP2a repression). Particulars: targeted repression of PBP2a.
Excerpt: as §1

The mark [7] stands for this setting: colonies from mice given Vehicle.

`CCN1CCN(C(=O)N[C@@H](C(=O)N[C@@H]2C(=O)N3[C@@H]2SC(C)(C)[C@@H]3C(=O)O)c2ccccc2)C(=O)C1=O` [Piperacillin]: the “susceptibility under xylose induction” value was “increased susceptibility; also recorded: increased effectiveness” in assay [1], “increased susceptibility” in assay [4] and “Increased susceptibility” in assay [6]. Also, the “collateral effect on susceptibility” value is “strong reciprocal collateral sensitivity” in the assay with MRSA N315 [2] (MRSA N315 after prior exposure to ME/TZ), “Collateral sensitivity” in the assay with MRSA N315 [2] (MRSA N315 after prior exposure to tazobactam) and “strong reciprocal collateral sensitivity” in the assay with MRSA N315 [2] (MRSA N315 after prior exposure/adaptation to meropenem). Further, the MIC with MRSA N315 [3] came to 64 µg/mL; in the assay with MRSA N315 [5] (Staphylococcus aureus, MRSA) it was 33.3 µg/mL; with MRSA N315 [5] (Wild-type N315) it was 33.3 µg/mL; with MRSA N315 [5] (colonies from mice given PI), 33.3 µg/mL; in the assay on MRSA N315 [5] (setting [7]) it was 33.3 µg/mL.

As to `C[C@@H](O)[C@H]1C(=O)N2C(C(=O)O)=C(S[C@@H]3CN[C@H](C(=O)N(C)C)C3)[C@H](C)[C@H]12` [Meropenem], the “susceptibility under xylose induction” value in assay [1] was “increased susceptibility; also recorded: increased effectiveness”; in assay [4], “increased susceptibility; also recorded: larger zones of inhibition”; in assay [6] it was “increased susceptibility”. Moreover, the entries for the “collateral effect on susceptibility” value with MRSA N315 [2] (MRSA N315 after prior exposure to PI/TZ) and in the assay on MRSA N315 [2] (MRSA N315 after prior exposure/adaptation to piperacillin) were “sensitized” and “sensitizes; also recorded: strong reciprocal collateral sensitivity”, respectively. Also, the MIC was 16 µg/mL in the assay with MRSA N315 [3]; 33.3 µg/mL in the assay with MRSA N315 [5] (Staphylococcus aureus, MRSA); 33.3 µg/mL with MRSA N315 [5] (Wild-type N315); 33.3 µg/mL in the assay with MRSA N315 [5] (colonies from mice given PI); 33.3 µg/mL in the assay on MRSA N315 [5] (setting [7]).
